# Results taken from patent US8809377B2, “Deubiquitinase inhibitors and methods for use of the same” (The Regents of the University of Michigan, priority 2010, dated 2014).
# Residues, ends and D or L forms follow the SMILES beside them. *: point of attachment. Cbz = O=C(OCc1ccccc1)*
# Columns and labels:
# DUB activity = test: Western / HA-UbVS labeling of DUB activity in intact cells; format: cell-based; conditions: for DUBs labeling (HA-UbVS): Z138 treated cells, AG490 250 μM
# Procedure: (§1) To assay for changes in activity of cellular deubiquitinase enzymes, leukemic cells were lysed in DUB buffer (50 mM Tris pH 7.4, 5 mM MgCl2, 150 mM NaCl) for 10 min at 4° C. The lysates were centrifuged at 20,000 RCF for 10 min and the supernatant was used for DUB labeling. Equal amounts of lysate were incubated with 500 ng of HA-UbVs for 1 hr at room temperature, followed by boiling in reducing sample buffer and resolving by SDS-PAGE. HA immunoblotting was used to detect DUB labeling.
# as §1, with “Z138 and HEK293” for “leukemic”, “RFC” for “RCF”, “SDS-PAGE. After protein transfer to nitrocellulose membranes,” for “SDS-PAGE.”
# (§2) Cancer Res, 2010. 70(22): p. […] Blood, 2011. 117(11): p. […] Biochem Pharmacol, 2011. 82(4): p. […] Blood, 2007. 109(8): p. 3470-8.
# ubiquitinated proteins = test: Ubiquitin immunoblot of cell extracts; format: cell-based; conditions: for accumulation of ubiquitinated proteins: Z138 cells; for ubiquitinated protein levels: CML cells
# Procedure: (§3) Total cell lysates were prepared by boiling and sonicating cell pellets in 1× Laemmli reducing sample buffer. To prepare detergent soluble and insoluble fractions, cells were lysed in cold isotonic lysis buffer [10 mM Tris-HCl (pH 7.5), 0.5% Triton X-100, 150 mM NaCl along with Mini-Complete and PhosSTOP] for 15 min on ice and centrifuged 10 min at 20,000 RCF. The clarified supernatant was used as the detergent soluble cell fraction. The residual pellet was washed and extracted in Laemmli reducing sample buffer and briefly sonicated to derive the detergent insoluble fraction. Equal volumes of cellular lysate or equal protein amounts were electrophoresed on SDS-PAGE gels and transferred to nitrocellulose membranes (Whatmann, Dassel, Germany). Proteins were detected by immunoblotting.
# Whole cell lysates were prepared by boiling and sonicating the cell pellets in 1× Laemmli reducing sample buffer. To prepare detergent soluble and insoluble fractions, cells were lysed in cold isotonic lysis buffer [10 mM Tris-HCl (pH 7.5), 0.5% Triton X-100, 150 mM NaCl along with Mini-Complete and PhosSTOP] for 15 min on ice and centrifuged 10 minutes at 20,000 RCF. The clarified supernatant was used as a source of the detergent soluble cell fraction. The detergent insoluble fraction was extracted by the sonication of residual pellet in equal volumes of boiling 1× Laemmli reducing sample buffer. Equal volumes of cellular lysate or equal protein amounts were electrophoresed on SDS-PAGE gels.
# cellular DUB activity = test: DUB activity of lysates from treated cells (Ub-AMC, Ub chain disassembly); format: cell-based; conditions: Z138 cells, 5 μM WP1130 or 50 nM bortezomib, by 4 hours
# Procedure: Cells were lysed in ice cold DUB buffer containing 50 mM Tris-HCl, pH 7.5, 0.5% NP-40, 5 mM MgCl2, 150 mM NaCl and 1 mM phenylmethylsulfonylfluoride. Briefly, 5 μg of clarified lysate from untreated or treated cells was incubated with 500 nM Ub-AMC in a 100 μL reaction volume at 37° C. and the release of AMC fluorescence was recorded at ex/em 380/480 using a spectrofluorometer. USP9x was immunoprecipitated from 500 μg of cell lysate and incubated in DUB buffer containing NEM, WP1130 or DMSO in a 100 μL reaction volume for 30 min. The reaction was initiated by the addition of 500 nM Ub-AMC and the release of AMC-fluorescence was recorded.
# In vitro disassembly of purified polyubiquitin chains (K-48/K-63 linked) was performed as previously described. Five μg of lysate from untreated or WP1130 treated cells were prepared in DUB buffer and incubated with K48- or K-63 linked chains (1 μg) for 10 min at 37° C. The extent of chain disassembly was assessed by ubiquitin immunoblotting.
# Inhibition of cellular deubiquitinases could lead to an increase in high molecular weight ubiquitinated proteins in the absence of proteasome inhibition. […] To directly assess the impact of WP1130 on DUB activity in treated cells, cell lysates from control and treated cells were incubated with ubiquitin-AMC and fluorescence generated as a consequence of substrate cleavage was measured as an indicator of DUB activity.
# The effect of WP1130 treatment on in vitro deubiquitination/disassembly of purified K48-linked or K63-linked polyubiquitin chains was evaluated. Lysates from WP1130 treated (2 hr) or untreated cells were incubated with 1 μg of unanchored polyubiquitin chains for 5, 10 and 15 min at 37° C.
# Bcr-Abl = Bcr-Abl immunoblot of cell fractions; format: cell-based; conditions: CML cells; WP1130 5 μM, bortezomib 50 nM
# WDT2 = test: MTT cell growth and survival; format: cell-based; conditions: WDT2 cell line
# Source text: as §2
# K562 = test: MTT cell growth and survival; format: cell-based; conditions: K562 cell line
# Source text: as §2
# Hsp70 = Hsp70 immunoblot; format: cell-based; conditions: CML cells
# BV-173 and BV-173R = test: Anti-proliferative effects in CML lines; conditions: BV-173 (WT Bcr-Abl) and BV-173R (T315I)
# pStat5 = test: Western blot of pStat5; format: cell-based; conditions: SET, HEL cell lines
# Procedure: as §3, §2
# [1] = molecular target: ubiquitin iso-peptidase activity; conditions: read-out: IC50, ubiquitin iso-peptidase activity in cells; cited from earlier work
# 20S proteasome = molecular target: T1, 20S proteasome (Homo sapiens, UniProt P28074); test: Proteasome activity assay in treated cells (Suc-LLVY-AMC); format: cell-based; conditions: 5 μM, 2 hr
# T1 construct: endogenous in cells; host or cells: K562 and other CML lines, Z138
# Procedure: (§4) Fluorogenic substrate Suc-LLVY-AMC was used to assay for the chymotryptic-like activity of the 20S proteasome. To assay for in vivo proteasome inhibition cells were treated with WP1130 (5 μM) or MG132 (5 μM) for 2 hours and lysed in ice-cold lysis buffer (50 mM HEPES, pH 7.5, 5 mM EDTA, 150 mM NaCl, 1% Triton X-100). Lysates were clarified by centrifugation at 20,000 RCF for 10 min and equal amounts of protein from each sample were incubated at 37° C. with 100 μM fluorogenic substrate. To assay for direct inhibition of the 20S proteasome in vitro, purified 20S human proteasome (200 ng) was incubated with WP1130 (5 μM), MG132 (5 μM) or Lactacystin (5 μM) for 30 min at 37° C. before addition of the substrates. Fluorescence intensity was measured using a spectrophotometer at excitation 360 nm & emission 460 nm. Assays were performed in triplicate, and statistical significance was determined with a paired Student's t test.
# 20S human proteasome = molecular target: T2, 20S human proteasome (Homo sapiens, UniProt P28074); test: Proteasome activity assay on purified 20S proteasome; format: biochemical; conditions: 5 μM
# T2 construct: purchased BostonBiochem
# Procedure: as §4
# USP9X = test: Western / HA-UbVS labeling of USP9X in intact cells or lysates; format: cell-based; conditions: Z138 treated cells
# Murine norovirus (MNV) = test: Murine norovirus plaque assay; format: cell-based; conditions: MNV-1 (MOI 5), RAW 264.7, 20 μM, 8 and 12 hours postinfection
# Procedure: Viral titers were determined by plaque assay.
# Cells were treated with IFN-β as a positive anti-viral control.
# tumor cell = test: Tumor cell proliferation; format: cell-based
# Source text: WP1051 and WP1052 represent two earlier chemical analogues of WP1130. […] This was unexpected as WP1051 and WP1052 are chemically identical but structurally distinct isomers. Since apoptosis/anti-proliferative properties of WP1130 are related to its ability to suppress cellular DUBs and induce accumulation of ubiquitinated proteins, WP1051 and 1052 were investigated whether they can affect protein ubiquitination and DUB activity.
# T1 sequence (P28074 60-263): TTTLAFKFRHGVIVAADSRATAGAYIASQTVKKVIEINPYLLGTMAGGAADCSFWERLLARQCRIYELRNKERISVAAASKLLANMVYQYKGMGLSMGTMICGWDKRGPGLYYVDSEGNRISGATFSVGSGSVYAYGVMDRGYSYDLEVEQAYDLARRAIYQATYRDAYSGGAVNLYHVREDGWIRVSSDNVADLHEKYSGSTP
compound,measurement,setting,value
"N#C/C(=C/c1ccc(O)c(O)c1)C(=O)NCc1ccccc1 [AG490, reference compound]",DUBs labeling (HA-UbVS),DUB activity,no change
same,accumulation of ubiquitinated proteins,ubiquitinated proteins,did not induce a change
"CC(C)C[C@H](NC(=O)[C@H](Cc1ccccc1)NC(=O)c1cnccn1)B(O)O [Bortezomib, reference compound]",reduction of DUB activity (ubiquitin-AMC),cellular DUB activity,no change
same,ubiquitinated protein levels,ubiquitinated proteins,elevated
same,Bcr-Abl trafficking from detergent soluble to insoluble cell fraction,Bcr-Abl,no effect
"CCCC(NC(=O)/C(C#N)=C/c1cccc(Br)n1)c1ccc(OCOC)cc1 (stereo not shown) [Compound 6, (E)-3-(6-Bromopyridin-2-yl)-2-cyano-N-(1-(4-(methoxymethoxy)phenyl)butyl)acrylamide]",MTT Activity relative to WP1130,WDT2,More sensitive
"CCCC(NC(=O)/C(C#N)=C/c1cccc(Br)n1)c1ccc(O)cc1 (stereo not shown) [Compound 7, (E)-3-(6-Bromopyridin-2-yl)-2-cyano-N-(1-(4-hydroxyphenyl)butyl)acrylamide]",MTT Activity relative to WP1130,WDT2,More sensitive
"CCC(NC(=O)/C(C#N)=C/c1cccc(Br)n1)c1ccc(OCCOC)cc1 (stereo not shown) [Compound 17, (E)-3-(6-Bromopyridin-2-yl)-2-cyano-N-(1-(4-(2-methoxyethoxy)phenyl)propyl)-acrylamide]",MTT Activity relative to WP1130,K562,Less sensitive
"C=CCNC1=C2C[C@@H](C)C[C@H](OC)[C@H](O)[C@@H](C)/C=C(\C)[C@H](OC(N)=O)[C@@H](OC)/C=C\C=C(/C)C(=O)NC(=CC1=O)C2=O [Compound 17-AAG, 17-Allylamino-17-demethoxygeldanamycin, reference compound]",ubiquitinated protein levels,ubiquitinated proteins,no effect
same,Hsp70 protein levels,Hsp70,induction of Hsp70
same,anti-proliferative effects,BV-173 and BV-173R,anti-proliferative effects
"CCC[C@H](NC(=O)C(C#N)C(SCC(O)CO)c1cccc(Br)n1)c1ccccc1 (stereo partly drawn) [Compound 20, 3-(6-Bromopyridin-2-yl)-2-cyano-3-((2,3-dihydroxypropyl)thio)-N—((S)-1-phenylbutyl)propanamide]",MTT Activity relative to WP1130,K562,More sensitive
same,Western Targets: DUB activity,"DUB activity; SET, HEL cell lines",no effect
same,Western Targets: pStat5,pStat5,pStat5: down-regulated; DUB
CCCCC[C@H](O)C/C=C1/C(=O)C=C[C@@H]1C/C=C\CCCC(=O)O [D12-prostaglandin J2],IC50,[1],~30 µM
"CC(C)C[C@@H](C=O)NC(=O)[C@H](CC(C)C)NC(=O)[C@H](CC(C)C)NC(=O)OCc1ccccc1 [MG-132, reference compound] (Cbz-Leu-Leu-Leu-aldehyde)",20S proteasome chymotryptic-like activity in intact cells (in vivo),20S proteasome,substantially inhibited
same,purified 20S proteasome activity (in vitro),20S human proteasome,substantially inhibited
C[C@H](NC(=O)/C(C#N)=C/c1ccc([N+](=O)[O-])c(O)c1)c1ccccc1 [WP1051],HA-UbVS labeling of USP9x,USP9X,could suppress the activity
same,viral titers by plaque assay,Murine norovirus (MNV),reduced viral titers
same,accumulation of ubiquitinated proteins,ubiquitinated proteins,induce accumulation of ubiquitinated proteins in a dose-dependent fashion
same,suppression of tumor cell proliferation,tumor cell,effective in suppressing tumor cell proliferation
C[C@H](NC(=O)/C(C#N)=C/c1ccc(O)c([N+](=O)[O-])c1)c1ccccc1 [WP1052],DUBs labeling (HA-UbVS),DUB activity,no DUB inhibition
same,viral titers by plaque assay,Murine norovirus (MNV),not
same,accumulation of ubiquitinated proteins,ubiquitinated proteins,failed to show any affect
same,suppression of tumor cell proliferation,tumor cell,failed to show any anti-tumor properties
COc1cc(/C=C/C(=O)CC(=O)/C=C/c2ccc(O)c(OC)c2)ccc1O [curcumin],IC50,[1],80 to 100 µM
O=C(C=Cc1ccccc1)C=Cc1ccccc1 [dibenzylideneacetone],IC50,[1],20 to 40 µM
C=C1C(=O)C2=CC1CCC(=O)C1(C)CCC(OC(C)=O)C(C)(C)C1CC2O (stereo not shown) [shikoccin],IC50,[1],~15 µM
